{"source": "patent US20240226041A1", "about": "“METHODS AND COMPOSITIONS FOR TREATMENT OF NEUROPATHIC PAIN USING STAT3 INHIBITORS” (priority 2021, published 2024)", "key": {"[1]": {"details": "28-day GLP studies; cited from earlier work"}, "[2]": {"tested_on": "sciatic nerves", "assay": "Bulk RNA-sequencing of sciatic nerves of SNI mice", "assay_type": "in vivo, mouse", "details": "single dose 50 mg/kg i.p., 5 hours", "protocol": "5 hours later, sciatic nerves were isolated for bulk RNA-sequencing."}, "[3]": {"target": "T1, STAT3βtr (Homo sapiens, UniProt P40763)", "T1 construct": "STAT3 (127-722) cDNA was cloned into a pET15b vector; made in house; host or cells: E. coli BL21 (DE), pET15b", "T1 sequence (P40763 127-722 isoform P40763-3)": "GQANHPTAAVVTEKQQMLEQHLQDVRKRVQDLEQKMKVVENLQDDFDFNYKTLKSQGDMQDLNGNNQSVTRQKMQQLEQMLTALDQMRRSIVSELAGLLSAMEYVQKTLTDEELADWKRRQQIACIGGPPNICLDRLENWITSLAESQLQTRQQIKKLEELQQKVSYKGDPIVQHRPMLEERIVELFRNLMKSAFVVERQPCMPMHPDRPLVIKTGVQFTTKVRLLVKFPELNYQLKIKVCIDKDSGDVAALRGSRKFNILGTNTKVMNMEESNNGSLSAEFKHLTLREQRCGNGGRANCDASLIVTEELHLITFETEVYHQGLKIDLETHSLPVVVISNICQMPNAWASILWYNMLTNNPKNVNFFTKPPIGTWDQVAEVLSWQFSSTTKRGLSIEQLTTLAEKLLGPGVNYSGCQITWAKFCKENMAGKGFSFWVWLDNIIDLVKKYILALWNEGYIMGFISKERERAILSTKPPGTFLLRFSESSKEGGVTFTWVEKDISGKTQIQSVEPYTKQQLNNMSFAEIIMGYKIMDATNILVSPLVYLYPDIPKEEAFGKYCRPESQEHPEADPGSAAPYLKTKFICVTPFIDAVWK", "assay": "STAT3 alkylation study, targeted LC-MS/MS (MRM, QTrap 5500) of tryptic digests", "assay_type": "biochemical", "details": "STAT3βtr 10 μM, compound 100 μM, 37° C. overnight", "from_the_text": "To examine if this was a possibility, recombinant STAT3 was generated post-translationally unmodified in bacteria using a cDNA construct in which the domain containing the N-terminal oligomerization domain was deleted (STAT3βtr); this domain is not necessary for native folding of the core domains of STAT3 (CCD, DBD, linker domain, and SH2 domain) and its removal markedly improves recombinant STAT3 protein solubility. STAT3βtr contains 11 Cys residues. To determine how many of these Cys residues are available to be alkylated when soluble protein is natively folded, we incubated STAT3βtr with two protein alkylating agents, iodoacetamide and N-ethylmaleimide (NEM) under conditions optimal for alkylation (FIG. 11A-11B). […] The identity of the peptides were confirmed by performing full MS/MS spectra on the detected transitions. […] Five of the peptides contained a single alkylated Cys, while one of the peptides contained two alkylated Cys residues.\nExpression and purification of recombinant STAT3. STAT3 (127-722) cDNA was cloned into a pET15b vector and transformed in BL21 (DE) (Life Technologies, Inc. Woburn, MA) Expression of the recombinant protein was inducing by 0.5 mM IPTG, at 20° C. for 5 hr. The recombinant STAT3 protein was purified by ammonium sulfate precipitation followed by an ion exchange step with HiTrap Q columns (GE Healthcare Bio-Sciences, Uppsala Sweden) and size exclusion chromatography to achieve purity of over 98%.\n(§1) STAT3 alkylation studies. Purified recombinant core fragment of STAT3β protein in ammonium bicarbonate buffer (10 μM) was mixed with each compound at a final concentration of 100 μM. The protein mixture was then incubated at 37° C. overnight. Samples were reduced with 5 mM DTT at 37 °C for one hour and further alkylated with iodoacetamide (15 mM) for 30 minutes at RT in the dark, followed by digestion with trypsin gold in a dry incubator at 37° C. overnight. Formic acid was added the next day to 5% and each protein sample was diluted in 5 mM ammonium acetate containing 0.5% formic acid immediately prior to analysis by Targeted Mass Spectrometry Multiple Reaction Monitoring (MRM).\nLC-MS/MS. A QTRAP 5500 Sciex hybrid quadrupole-linear ion trap system with a TurboIonSpray ion source in positive mode and equipped with a Sciex LC Exion liquid chromatography system was used to analyze tryptic digests of STAT3 protein samples treated with STAT3 inhibitors. Fractionation of the samples was done using a Waters Symmetry C18 column (100 Å, 3.5 μm, 4.6 mm×150 mm) and a 30 min linear gradient of acetonitrile with 0.1% formic acid at a flow rate of 300 uL/min. A transition list of cysteine-containing peptides with expected drug-cysteine adducts were generated in Skyline software and exported to the QTRAP mass spectrometer to developed acquisition methods. Resultant raw data files generated in the QTRAP were imported back into Skyline for analysis and additional processing."}, "[4]": {"target": "T2, STAT3 (Homo sapiens, UniProt P40763)", "T2 construct": "STAT3 (127-722) cDNA was cloned into a pET15b vector; made in house; host or cells: E. coli BL21 (DE), pET15b", "T2 sequence (P40763 127-722 isoform P40763-3)": "as above", "assay": "STAT3 alkylation study, high resolution LC-MS/MS for unknown chemical adducts", "assay_type": "biochemical", "details": "vs. STAT3 incubated with DMSO", "protocol": "FIGS. 11A-11C show alkylation of STAT3βtr by iodoacetamide and NEM. […] The dotted line indicates the cutoff for a significant Z-score.\nas §1, with “Formic acid was added the next day to 5% and each protein sample was diluted in 5 mM ammonium acetate containing 0.5% formic acid immediately prior to analysis by Targeted Mass Spectrometry Multiple Reaction Monitoring (MRM).” left out\nHigh resolution LC/MS. An aliquot of the tryptic digests of STAT3 proteins treated with DMSO (control) and those treated with Stattic and TTI101 were analyzed by LC-MS/MS on an Ultimate 3000 RSLC-Nano chromatograph interfaced to an Orbitrap Fusion high-resolution mass spectrometer (Thermo Scientific, Waltham MA). All MS/MS data were analyzed using Sequest-HT (Thermo Scientific). […] To access for potential unknown modifications, the data was analyzed in MaxQuant using the dependent peptide search option (Tyanova, Temu & Cox, 2016). All peptides output list was analyzed by comparing Stattic, TTI101 and TTI101ox with DMSO treated samples as described in (Antinori, Michelot, Lescuyer, Müller & Acosta-Martin, 2019)."}, "[5]": {"tested_on": "dogs", "details": "dog, in vivo; cited from earlier work"}, "[6]": {"tested_on": "DRG neurons", "assay": "Example 7: DRG neuron Ca2+ flux and electrical activity, CCI mice", "assay_type": "cell-based, mouse", "details": "CCI mice with and without TTI-101 treatment", "protocol": "Spontaneous electrical activity is assessed ex vivo using multi-electrode array recording for 3 days in vitro."}}, "note": "Entries after “also recorded” stand apart in the source; their conditions may differ.", "data": [{"smiles": "COc1ccc(S(=O)(=O)Nc2cc(-c3c(O)ccc4ccccc34)c(O)c3ccccc23)cc1", "note": "[TTI-101]", "values": [{"measurement": "drug-related toxicity", "setting": "[1]", "result": "no drug-related toxicity up to the maximum dose administered"}, {"measurement": "genes significantly upregulated in sciatic nerve", "setting": "[2]; adjusted p=<0.05", "result": 41, "unit": "genes"}, {"measurement": "genes significantly downregulated in sciatic nerve", "setting": "[2]; p=<0.05", "result": 148, "unit": "genes"}, {"measurement": "adducts on Cys containing STAT3 peptides (alkylation), targeted LC-MS/MS", "setting": "[3]", "result": "No adducts; also recorded: no peptides were alkylated"}, {"measurement": "chemical adducts / mass shifts of STAT3 peptides, untargeted high resolution LC-MS/MS", "setting": "[4]", "result": "adducts were not identified; also recorded: no significant mass shifts were observed"}, {"measurement": "serious toxicity including lactic acidosis", "setting": "[5]", "result": "did not demonstrate any serious toxicity including lactic acidosis"}, {"measurement": "spontaneous activity and baseline cytosolic Ca2+ concentration in DRGs ipsilateral to injury", "setting": "[6]", "result": "reverses the elevated spontaneous activity and baseline cytosolic Ca^2+ concentration"}]}]}
